From publication PMC10660337, “Mutate and Conjugate: A Method to Enable Rapid In-Cell Target Validation” (ACS Chemical Biology, 2023)
Where “and” joins values, the source holds several entries; their conditions need not be identical. Equal values may be shown once.

Assays:
BRD4(1) = tested on: BRD4(1); set-up: method as in PMID 36378954; conditions: cited from earlier work
BRD4(1)^L94C [1] = biological target: T1, BRD4(1)^L94C (Homo sapiens, UniProt O60885, L94C); test: Protein LCMS labeling assay 2 (diverse reactive fragment screen); format: binding; conditions: 1 μM protein, 4 °C, 24 h
T1 construct: Characterization of His6-BRD4(1)L94C; made in house; host or cells: E. coli BL21 (DE3)
Procedure: To investigate whether screening of an unbiased set of covalent fragments could identify ligands for BRD4(1)^L94C, we evaluated 250 previously published cysteine-reactive compounds, comprising 138 acrylamide- and 112 chloroacetamide-functionalized reactive fragments with molecular weights ranging from 152 to 300 Da.[44] Due to the higher throughput of this screening assay, the conditions varied compared to “labeling assay 1”. In this case, 1 μM BRD4(1)^L94C was incubated with either a chloroacetamide fragment (50 μM) or an acrylamide fragment (200 μM) at 4 °C for 24 h (referred to as “labeling assay 2”). Samples were then analyzed using protein LCMS, where a positive hit was classified as a single protein labeling event with a mass shift corresponding to the mass of the fragment of ±2 Da and a labeled peak of >20% intensity. Of the 250 diverse reactive compounds screened against BRD4(1)^L94C, only one chloroacetamide and one acrylamide fragment were classified as hits (Figures 5A and S10). […]
Experiments were performed in a protein LCMS assay buffer, with 10 µM protein, and 50 µM of the desired compound with a final DMSO concentration of 0.5% (Table S16). […] Data was analysed and processed using MassLynx. […] Covalent labeling was calculated using intensities of the unlabeled and labeled protein (Equation 1). […]

BRD4(1)^L94C [2] = biological target: T1, BRD4(1)^L94C; test: AlphaScreen H4_1–20(KAc)4 peptide displacement; format: binding; conditions: mean of three ± s.e.m.
Procedure: Under these conditions, all three fragments displaced the peptide from BRD4(1)^L94C, which is consistent with the fragments binding to BRD4(1)^L94C in the expected location (Table 2). […] The longer the mutant protein and electrophile are incubated together, the more time there is for a covalent interaction to occur. […]
(§1) Dose response AlphaScreen™
(§2) The peptide (Table S17) was supplied at >95% purity by GenScript and was stored as 1 mM stocks in […]
(§3) Table S17. Amino acid sequences of peptides used in AlphaScreen™.
(§4) Peptide Amino Acid Sequence […]
(§5) The assay buffer (Table S18, pH 7.6) was filtered through a 0.22 μm filter before use. The buffer is stored at 4 °C as a 5× solution without bovine serum albumin (BSA), which was added on the day of use. The compounds, proteins, and peptides were dispensed into a ProxiPlate-384 Plus (Perkin Elmer) using a Thermo-Fisher electronic multi-channel pipette. For the incubation steps, the plates were sealed, shaken for 10 seconds at 600 rpm on a plate oscillator, and incubated at room temperature in darkness for 30 min or 3.5 h. Ni2+ chelate acceptor and streptavidin donor beads were prepared as a mixture in a 1:300 dilution (0.007 mg/mL final assay concentration, added to the plates and incubated for a further 30 min at room temperature. Plates were read using a SynergyTM 2 MultiMode Microplate Reader using the inbuilt AlphaScreen™ 384 ProxiPlate function: excitation 680 nm, 0.18 sec; emission […]
(§6) Table S18. Composition of assay buffer used in AlphaScreen™ experiments, adjusted to pH 7.6 using an aqueous NaOH […]
(§7) Reagent Composition Mass (mg) for 50 mL
(§8) 50 mM DMSO stock solutions of the compounds were serially diluted, and dispensed into wells (5 μL).
(§9) The protein-peptide mixes (7 μL) for each combination were prepared following the specified final assay concentration (Table S19), and dispensed into wells. Assay beads (8 μL) were added to attain a final assay volume of 20 μL. Dose response curves were obtained for each compound in triplicate, with serial 1:2 dilutions. Data was processed by fitting a four-parameter equation (Equation 2) to calculate IC50 values using Prism software.
(§10) Table S19. Final assay concentrations of each peptide-protein combination.
(§11) Protein Peptide Protein FAC (nM) Peptide FAC (nM)
(§12) Response = Bottom + Top − Bottom

BRD4(1)^L94C [3] = biological target: T1, BRD4(1)^L94C; test: Protein LCMS labeling assay 1; format: binding; conditions: 50 μM compound, 10 µM protein, 37 °C, mean of three ± s.e.m., ND = not detectable
Procedure: (§13) The resulting library of 22 fragments was screened for BRD4(1)^L94C binding at a concentration of 50 μM using a protein LCMS assay (referred to as “labeling assay 1”). […] To assess the selectivity of the fragments for the labeling of C94, hits were also screened against BRD4(1)^WT under the same conditions. […] The acrylamide-based fragment, 12, labeled 98% of BRD4(1)^L94C after 4 h. While 95% of the protein was labeled once, 3% of the protein was labeled twice (Figure 5D). […] Fragment 14, designed by appending a β-dimethylaminomethyl acrylamide to the structure of 12, led to 74% of singly labeled BRD4(1)^L94C after 4 h with no labeling of BRD4(1)^WT observed (Table 1 and Figure 5E). […] However, only 9.9% of labeled BRD4(1)^L94C was observed, substantially lower than the 56% labeling observed for the corresponding 3-methyl regioisomer 10 (Table 1). […]
(§14) Assays were performed in 1.5 mL Eppendorf tubes at 37 °C and gently shaken, unless otherwise stated.
(§15) Experiments were performed in a protein LCMS assay buffer, with 10 µM protein, and 50 µM of the desired compound with a final DMSO concentration of 0.5% (Table S16). Time points were taken at 0, 1 and 4 h, unless otherwise stated, where a 20 µL sample of the reaction mix was taken, diluted with 100 µL Milli-Q water, and flash frozen. Samples were thawed immediately prior to LCMS analysis on a Waters Xevo G2-S system (Waters) fitted with a ProSwift™ RP-2H PSDVB Reversed Phase HPLC Column (Thermofisher). Data was analysed and processed using MassLynx. The total ion chromatograms (TIC) were extracted (region containing protein) and the summed scans were deconvoluted (using MaxEnt). Covalent labeling was calculated using intensities of the unlabeled and labeled protein (Equation 1). Figures were made using GraphPad Prism 7.0.
(§16) Table S16. Buffer composition for protein LCMS.
(§17) Buffer Reagent Composition Amount per 1 L
(§18) Protein LCMS Assay Buffer HEPES 25 mM 6.0 g
(§19) Protein Labelling = Intensity of Labelled Peak × 100

BRD4(1)^WT [4] = biological target: T2, BRD4(1)^WT (Homo sapiens, UniProt O60885); test: Protein LCMS labeling assay 1; format: binding; conditions: 50 μM compound, 10 µM protein, 37 °C, 4 h; mean of three ± s.e.m.; ND = not detectable
T2 construct: Characterization of His6-BRD4(1)WT; made in house; host or cells: E. coli BL21 (DE3)
Procedure: Before introducing a Cys mutant into the first bromodomain of BRD4 [BRD4(1)], we wanted to rule out the possibility that the native Cys residues C125 and C136 (Figures 2A and S1), would react with electrophilic fragments. To test this, we incubated two KAc-mimicking methylisoxazole-based reactive fragments (1 and 2, Figure 2C) with purified BRD4(1)^WT.
as §13, §14, §15, §16, §17, §18, §19

BRD4(1)^WT [5] = biological target: T2, BRD4(1)^WT; test: AlphaScreen H4_1–20(KAc)4 peptide displacement; format: binding; conditions: 4 h incubation at RT; mean of three ± s.e.m.
Procedure: as §1, §2, §3, §4, §5, §6, §7, §8, §9, §10, §11, §12

BRD4(1)^WT [6] = biological target: T2, BRD4(1)^WT; test: Fluorescent labeling of purified protein (CuAAC with TAMRA-PEG3-azide, in-gel fluorescence); format: binding; conditions: 50 μM probe, 10 μM protein, 4 h, 37 °C, then CuAAC 1 h
Procedure: (§20) When 28, 29, 30, and 42 were incubated with either purified BRD4(1)^L94C or BRD4(1)^WT and subjected to a copper(I)-catalyzed alkyne–azide click reaction (CuAAC) reaction with the fluorescent TAMRA-PEG3-azide dye, all clickable probes labeled the mutant protein and could be visualized using fluorescence imaging of a gel (Figure 6).
(§21) Figure 6 Clickable probes 28, 29, 30, and 42 covalently label BRD4(1)^L94C and undergo a subsequent CuAAC reaction with TAMRA-PEG3 azide to fluorescently label the protein, as shown by in-gel fluorescence imaging. Compounds 28, 29, 30, 41, and 42 (50 μM) were incubated with purified BRD4(1)^L94C or BRD4(1)^WT (10 μM) for 4 h at 37 °C, followed by CuAAC reaction with TAMRA-PEG3 azide for 1 h and separation of components by SDS-PAGE. For all compounds other than 30, only labeling of BRD4(1)^L94C was observed.
as §8
The protein-peptide mixes (7 μL) for each combination were prepared following the specified final assay concentration (Table S19), and dispensed into wells. […]
Assays were performed in 1.5 mL Eppendorf tubes at room temperature, in the dark, and gently shaken, unless otherwise stated. […] Data was analysed and processed using MassLynx. […]
Gels were imaged for fluorescence using Bio-rad molecular imager and then stained for 15 min with […]

BRD4(1)^L94C [7] = biological target: T1, BRD4(1)^L94C; test: as above; format: binding; conditions: 50 μM probe, 10 μM protein, 4 h, 37 °C, then CuAAC 1 h
Procedure: as §20
as §21, with “observed. […]” for “observed.”
Fluorescent labeling of purified proteins
Assays were performed in 1.5 mL Eppendorf tubes at 37 °C, and gently shaken, unless otherwise stated.
The desired click probe (50 µM) was incubated with protein (10 µM) in protein LCMS buffer for 4 h, after which TAMRA-PEG3-Azide (200 µM), TCEP·HCl (1 mM), TBTA (100 µM), and CuSO4 (1 mM) were added and incubated for a further 1 h at room temperature in the dark. A 25 µL sample of the […]
reaction mix was taken and 8 µL of Lamelli buffer added, and the samples denatured by heating at 95 °C for 10 min. Samples were separated by gel electrophoresis on NuPAGE™ 4–12%, Bis-Tris precast polyacrylamide gels (Thermofisher). Following electrophoresis, gels were stained for 15 min with InstantBlueTM Coomasie® stain (Abcam), destained, and imaged using Bio-rad molecular imager.
Bio-rad Image Lab 6.1 was used to process the data. […]
InstantBlueTM Coomasie® stain (Abcam), destained, and imaged using Bio-rad molecular imager. […]
MEM media. Cells were then harvested and lysed using the previously described protocol above. […]

Cc1noc(C)c1-c1ccccc1 [4-phenyl-3,5-dimethylisoxazole]
IC50 (BRD4(1)): 50 µM

O=C(CCl)Nc1nc(-c2cccs2)cs1 [Compound 26]
Labeling of BRD4(1)^L94C, labeling assay 2 (BRD4(1)^L94C [1]; chloroacetamide fragment 50 μM): 27%

C=CC(=O)Nc1ccc(N2CCCC2=O)c(OC)c1 [Compound 27]
IC50 (BRD4(1)^L94C [2]; IC50 (μM) L94C 1 h, 1 h incubation at RT): 15.5 ± 3.2 µM
IC50 (BRD4(1)^L94C [2]; IC50 (μM) L94C 4 h, 4 h incubation at RT): 2.48 µM and 2.5 µM
Labeled Protein (%) L94C 1 h (BRD4(1)^L94C [3]; 1 h): 17 ± 1.0%
Labeled Protein (%) L94C 4 h (BRD4(1)^L94C [3]): 61% and 61 ± 2.5%
Labeled Protein (%) WT 4 h (BRD4(1)^WT [4]): no covalent binding
Labeling of BRD4(1)^L94C, labeling assay 2 (BRD4(1)^L94C [1]; acrylamide fragment 200 μM): 89%
IC50 (BRD4(1)^WT [5]): > 100 µM

C#CCN(C)C/C=C/C(=O)Nc1ccc(N2CCCC2=O)c(OC)c1 [Compound 41]
Labeled Protein (%) L94C 4 h (BRD4(1)^L94C [3]): 2% and 2.0 ± 0.0%
Labeling of purified BRD4(1)^WT, in-gel fluorescence (BRD4(1)^WT [6]): no labeling
Labeling of purified BRD4(1)^L94C, in-gel fluorescence (BRD4(1)^L94C [7]): no labeling
